Data on four molecules can be found in patent US20260240872A1, “COMBINATION OF METFORMIN AND GLIBENCLAMIDE IN THE TREATMENT OF PARKINSON'S DISEASE” (CXS THERAPEUTICS, priority 2023, published 2026).

What all share (format): cell-based
In data set [1] the test system is rat primary dopaminergic neurons. The data set is described as follows: Example 2: 6-OHDA injury, protective protocol, length of TH positive neurites. The settings on record: for neurites loss / protection of neurites from damages induced by 6-OHDA: one-hour pre-treatment, 6-OHDA 48 hours; for neurites loss: Plate 1, not significant; for protection of neurites from damages induced by 6-OHDA: compound alone, conclusion; for neurites loss (decrease of neurites length): 6-OHDA 20 μM, 48 hours; for neurites length: p<0.05. Here is the method: (§1) The total number and the neurites length of dopaminergic neurons was assessed.
(§2) Rat mesencephalic neurons were cultured as described by Schinelli et al., 1988. Briefly pregnant female rats of 15 days gestation were killed by cervical dislocation (Rats Wistar; Janvier Lab) and the fetuses removed from the uterus. The embryonic midbrains were removed and placed in ice-cold medium of Leibovitz 15 (L15; PanBiotech, Ref P04-27055, Batch: 1260323) containing 2% of Penicillin-Streptomycin (PS; PanBiotech, ref: P06-07100, Batch: 2585615) and 1% of bovine serum albumin (BSA; Sigma, Ref: 810533, Batch: 73). Only the ventral portions of the mesencephalic flexure were used for the cell preparation as this region of the developing brain is enriched in dopaminergic neurons. The midbrains were dissociated by […] for 20 minutes (min) at 37° C. (Trypsin EDTA 1×; PanBiotech, Ref: P10-023100, Batch: 8290223). The reaction was stopped by the addition of Dulbecco's modified Eagles medium (DMEM; PanBiotech, Ref: P04-03600, Batch: 6041222) containing Dnase | grade II (0.1 mg/ml; PanBiotech, Ref: P60-37780100, Batch: H210916) and 10% of fetal calf serum (FCS; Invitrogen, Ref: 10270106, Batch: 2534381). Cells were then mechanically dissociated by 3 passages through a 10 mL pipette. Cells were then centrifuged at 180×g for 10 min at +4° C. on a layer of BSA (3.5%) in L15 medium. The supernatant was discarded and the cell pellets were resuspended in a defined culture medium consisting of Neurobasal Plus (Gibco, Ref: A3582901, Batch: 2537248) supplemented with 2% of B27 Plus (Gibco, ref: A3582801, Batch: 2722550), L-glutamine (2 mM; PanBiotech, Ref: P04-80100, Batch: 7061121), 2% of PS, 10 ng/ml of BDNF PeproTech, Ref: 450-02, Batch: 092361) and 1 ng/ml of Glial Derived Neurotrophic factor (GDNF; PeproTech, Ref: 450-10, Batch: 012364). Viable cells were then counted in a Neubauer cytometer using the trypan blue exclusion test. The cells were seeded at a density of 40 000 cells/well in 96 well-plates coated with poly-L-Ornithine (Sigma, Ref: P4957, Batch: RNBL6953) and laminin (Sigma, Ref: L2020, Batch: 0000216258), and were cultured at 37° C. in a humidified air (95%)/CO2 (5%) atmosphere. Half of the medium was changed every 2 days with fresh medium. In these conditions, after 5 days of culture, astrocytes are present in the culture and release growth factor allowing neurons differentiation. In this condition, 2 to 5% of neurons are dopaminergic neurons.
(§3) Briefly, 6-OHDA (Sigma, Ref: H4381, Batch: MKCQ5002) was reconstituted in define culture medium at 40 μM (stock solution). The control medium was prepared in the same conditions. After 7 days of culture, primary mesencephalic neurons were pre-treated for 1 hour with test compounds or reference compound (BDNF, 50 ng/ml) and then intoxicated with 6-OHDA at a final concentration of 20 μM for 2 days incubation in order to induce a neuronal cell death of about 40%. The following conditions were done:
(§4) After 2 days of intoxication, cells were fixed by a solution of 4% paraformaldehyde (Alpha Aesar, ref J19943, Batch: 211457) for 20 min at room temperature, the control conditions were fixed as well following the same procedure. The cells were then permeabilized and non-specific sites were blocked with a solution of phosphate buffered saline (PBS; VWR; ref: L0615-500, Batch: MS01 MB) containing 0.1% of saponin (Sigma; ref: S7900, Batch: BCBL8667V) and 1% FCS for 15 min at room temperature. Cells were incubated with a rabbit polyclonal anti-Tyrosine Hydroxylase antibody (TH, 1/1000, Sigma, ref: AB152, Batch: 3870479) in a solution of PBS overnight at 4° C.
(§5) Nuclei of cells were labelled by a fluorescent marker (Hoechst, Sigma; ref: B1155, Batch: 046M4048V) in the same solution.
(§6) For each condition, 20 pictures per well were taken using InCell Analyzer™ 2200 (GE Healthcare) with 20× magnification. Images of each culture well were taken in same condition.

Data set [2] shares this test system. The data set is described as follows: Example 2: 6-OHDA injury, protective protocol, total number of TH positive neurons (dopaminergic neurons survival). The settings on record: for cellular death / protection of dopaminergic neurons from cell death induced by 6-OHDA: one-hour pre-treatment; for cellular death: 6-OHDA 20 μM 48 hours, Plate 1, not significant; for protection of dopaminergic neurons from cell death induced by 6-OHDA: compound alone, 6-OHDA 48 hours, conclusion; for cellular death (decrease of dopaminergic neurons survival): 48 hours; for dopaminergic neurons survival: BDNF 50 ng/ml + 6-OHDA 20 μM 48 hours. On the procedure:
as §1, §2, §3, §4, §5, §6

The test system is the same in data set [3]. The data set is described as follows: Example 1: 6OH-DA injury on rat primary mesencephalic culture, neurite length (fitness) of dopaminergic neurons. The settings on record: compound alone; as compared to Brain Derived Neurotrophic Factor; FIG. 2. An excerpt:
In these conditions, after 5 days of culture, astrocytes are present in the culture and release growth factor allowing neurons differentiation.

Data set [4] shares this test system. Kind of data set: Example 1: 6OH-DA injury on rat primary mesencephalic culture, number of TH positive dopaminergic neurons (survival/viability). The settings on record: FIG. 1.

`CN(C)C(=N)NC(=N)N` [CXS001, 1,1-dimethylbiguanide]: the neurites loss in data set [1] (compound alone at 1 μM) is listed as 38%; in data set [1] (compound alone at 3 μM), 43%; in data set [1] (compound alone at 10 μM), 55%. Further, the “protection of neurites from damages induced by 6-OHDA” value in data set [1] was “does not protect”. Also, the cellular death in data set [2] (compound alone at 1 μM) is reported as 43%; in data set [2] (compound alone at 3 μM) it was 44%; in data set [2] (compound alone at 10 μM) it was 51%. In addition, in data set [2], the “protection of dopaminergic neurons from cell death induced by 6-OHDA” value is “does not protect”.

As for `NCCc1cc(O)c(O)cc1O` [6-OHDA, 6-hydroxydopamine], the “neurites loss (decrease of neurites length)” value in data set [1] (Plate 1, FIG. 9, p<0.001) was found to be 54%; in data set [1] (Plate 2, FIG. 10, p<0.0001), 56%; in data set [1] (Plate 3, FIG. 11, p<0.001), 45%. Further, the “cellular death (decrease of dopaminergic neurons survival)” value in data set [2] (20 μM, Plate 2, FIG. 7, p<0.0001) amounted to 55%; in data set [2] (6-OHDA 20 μM, Plate 1, FIG. 6, p<0.0001), 54%; in data set [2] (6-OHDA 20 μM, Plate 3, FIG. 8, p<0.001), 46%.

For the molecule `COc1ccc(Cl)cc1C(=O)NCCc1ccc(S(=O)(=O)NC(=O)NC2CCCCC2)cc1` [CXS002, Glibenclamide], the “dopaminergic neuron fitness (neurite length) in 6OHDA intoxication” value in data set [3] is “did not improve dopaminergic neuron fitness”. In addition, the neurites loss was 58% in data set [1] (compound alone at 1 μM), 57% in data set [1] (compound alone at 3 μM) and 47% in data set [1] (compound alone at 10 μM). Moreover, in data set [1], the “protection of neurites from damages induced by 6-OHDA” value is listed as “does not protect”. The values for the cellular death in data set [2] (compound alone at 1 μM), in data set [2] (compound alone at 3 μM) and in data set [2] (compound alone at 10 μM) were 58%, 57% and 47%, respectively. Also, the “protection of dopaminergic neurons from cell death induced by 6-OHDA” value in data set [2] was “does not protect”. Besides, the neuron viability result in data set [4] (at high concentration, 6OHDA intoxication) is reported as “seems to decrease neuron viability”. Also, the “dopaminergic neuron survival in 6OHDA intoxication” value in data set [4] (compound alone, as compared to Brain Derived Neurotrophic Factor) is “did not improve dopaminergic neuron survival”.

B1: BDNF: Brain Derived Neurotrophic factor, used as reference compound (positive control) at 50 ng/ml (protein, UniProt P23560 19-247, looked up)
Neurotrophic factor BDNF …: APMKEANIRGQGGLAYPGVRTHGTLESVNGPKAGSRGLTSLADTFEHVIEELLDEDQKVRPNEENNKDADLYTSRVMLSSQVPLEPPLLFLLEEYKNYLDAANMSMRVRRHSDPARRGELSVCDSISEWVTAADKKTAVDMSGGTVTVLEKVPVSKGQLKQYFYETKCNPMGYTKEGCRGIDKRHWNSQCRTTQSYVRALTMDSKKRIGWRFIRIDTSCVCTLTIKRGR
For B1, the neurites length in data set [1] (BDNF 50 ng/mL + 6-OHDA 20 μM 48 hours, Plate 1, FIG. 9) is listed as 79 % of the control; in data set [1] (BDNF 50 ng/ml + 6-OHDA 20 μM 48 hours, Plate 2, FIG. 10), 76 % of the control; in data set [1] (BDNF 50 ng/ml + 6-OHDA 20 μM 48 hours, Plate 3, FIG. 11) it was 85 % of the control. The dopaminergic neurons survival in data set [2] (Plate 1, FIG. 6, p<0.05) was 81 % of the control; in data set [2] (Plate 2, FIG. 7, p<0.0001), 87 % of the control; in data set [2] (Plate 3, FIG. 8, p<0.05) it was 83 % of the control.
